Experimental data taken from PMC10939098 (Emerging Microbes & Infections, 2024).
Where a chain is given by its changes, count along the chain named. Values after ≈ are worked out from the molar mass of the structure shown.

Legend:
[1] = test system: PER-producing P. aeruginosa clinical isolates; experiment: microbe, parasite or virus in culture; assay type: cell-based, Pseudomonas aeruginosa; conditions: for % resistance: share of isolates resistant
[2] = test system: PAO1 transconjugants carrying blaPER-1 plasmids; experiment: Broth microdilution MIC, transconjugants and recipient PAO1-Rrif; assay type: cell-based; conditions: Pseudomonas aeruginosa
[3] = test system: Recombinant PAO1 strains; experiment: Broth microdilution MIC, recombinant PAO1 strains carrying blaPER; assay type: cell-based; conditions: Pseudomonas aeruginosa
[4] = target: T1, PER-1 (Pseudomonas aeruginosa, UniProt P37321); experiment: Direct competition inhibition assay with nitrocefin, PER-1; assay type: biochemical
T1 sequence (P37321 27-308): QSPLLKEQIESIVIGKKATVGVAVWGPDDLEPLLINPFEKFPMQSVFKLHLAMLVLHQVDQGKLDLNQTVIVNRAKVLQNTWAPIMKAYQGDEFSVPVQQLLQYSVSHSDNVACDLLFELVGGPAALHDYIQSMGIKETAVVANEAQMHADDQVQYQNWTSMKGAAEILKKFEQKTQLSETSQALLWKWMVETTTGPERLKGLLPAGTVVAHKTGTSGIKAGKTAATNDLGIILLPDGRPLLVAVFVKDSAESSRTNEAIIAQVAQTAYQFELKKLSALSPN

[5] = target: T2, PER-4 (Pseudomonas aeruginosa, UniProt P37321, S135T); experiment: Direct competition inhibition assay with nitrocefin, PER-4; assay type: biochemical; conditions: for fold higher IC50 value against PER-4 than against wild-type PER-1: PER-4 vs PER-1
T2 sequence (P37321 27-308 S135T): T1 sequence (P37321 27-308) with S109T

[6] = target: T2, PER-4; experiment: Steady-state enzyme kinetics, purified PER-4; assay type: biochemical; conditions: room temperature, 1×PBS pH 7.2
[7] = PAO1, recipient strain PAO1-R^rif
[8] = PAO1, transconjugant PAO1/pPA268
[9] = PAO1, transconjugant PAO1/pPA272
[10] = PAO1, transconjugant PAO1/pPA282
[11] = PAO1, transconjugant PAO1/pPA975
[12] = PAO1, transconjugant PAO1/pPA1017
[13] = PAO1, transconjugant PAO1/pPA1018
[14] = PAO1, strain PAO1-pGK1900 (empty vector)
[15] = Pseudomonas aeruginosa, isolate PA268
[16] = Pseudomonas aeruginosa, isolate PA272
[17] = Pseudomonas aeruginosa, isolate PA282
[18] = Pseudomonas aeruginosa, isolate PA975
[19] = Pseudomonas aeruginosa, isolate PA1017
[20] = Pseudomonas aeruginosa, isolate PA1018

Compound	% resistance ([1]; 56 PER-producing PA strains) [%]	MIC50 ([1]; Pseudomonas aeruginosa) [µg/mL]	MIC90 ([1]; Pseudomonas aeruginosa) [µg/mL]	MIC [2, 8] [µg/mL]	MIC [2, 9] [µg/mL]	MIC [2, 10] [µg/mL]	MIC [2, 11] [µg/mL]	MIC [2, 12] [µg/mL]	MIC [2, 13] [µg/mL]	MIC ([3]; PAO1) [µg/mL]	MIC [3, 14] [µg/mL]	MIC ([3]; PAO1, strain PAO1-pGK1900-PER1) [µg/mL]	MIC ([3]; PAO1, strain PAO1-pGK1900-PER4) [µg/mL]	MIC [1, 15] [µg/mL]	MIC [1, 16] [µg/mL]	MIC [1, 17] [µg/mL]	MIC [1, 18] [µg/mL]	MIC [1, 19] [µg/mL]	MIC [1, 20] [µg/mL]	further results
NCC[C@H](O)C(=O)N[C@@H]1C[C@H](N)[C@@H](O[C@H]2O[C@H](CN)[C@@H](O)[C@H](O)[C@H]2O)[C@H](O)[C@H]1O[C@H]1O[C@H](CO)[C@@H](O)[C@H](N)[C@H]1O [AMK, amikacin]	94.64	> 128	> 128	–	–	–	–	–	–	–	–	–	–	–	–	–	–	–	–	–
C[C@H]1[C@H](NC(=O)/C(=N\OC(C)(C)C(=O)O)c2csc(N)n2)C(=O)N1S(=O)(=O)O [AZT, aztreonam]	–	–	–	> 128	> 128	> 128	> 128	> 128	> 128	4	8	> 128	> 128	–	–	–	–	–	–	MIC [2, 7]: 2 µg/mL (≈ 4.59 µM)
NC(=O)[C@@H]1CC[C@@H]2CN1C(=O)N2OS(=O)(=O)O [Avibactam]	–	–	–	–	–	–	–	–	–	–	–	–	–	–	–	–	–	–	–	IC50 [4]: 0.217 µM; Ki [4]: 0.191 ± 0.004 µM; IC50 [5]: 729 µM; Ki [5]: 473 ± 29.2 µM; fold higher IC50 value against PER-4 than against wild-type PER-1 [5]: ~3359 fold
CC(C)(O/N=C(\C(=O)N[C@@H]1C(=O)N2C(C(=O)[O-])=C(C[n+]3ccccc3)CS[C@H]12)c1csc(N)n1)C(=O)O [CAZ, ceftazidime]	100.00	> 128	> 128	> 128	> 128	> 128	128 (≈ 234 µM)	> 128	> 128	1	2	> 128	> 128	> 128	> 128	> 128	> 128	> 128	> 128	MIC range ([1]; 56 PER-producing PA strains): >128 µg/mL; % resistance ([1]; 56 PER-producing PA strains, listed as ceftazidime): 100%; Km [6]: 726 µM; kcat [6]: 607.66 s⁻¹
CC(C)(O/N=C(\C(=O)N[C@@H]1C(=O)N2C(C(=O)[O-])=C(C[N+]3(CCNC(=O)c4ccc(O)c(O)c4Cl)CCCC3)CS[C@H]12)c1csc(N)n1)C(=O)O [CFDC, Cefiderocol]	–	–	–	2 (≈ 2.66 µM)	2 (≈ 2.66 µM)	2 (≈ 2.66 µM)	2 (≈ 2.66 µM)	2 (≈ 2.66 µM)	–	1	0.5	2	2	2 (≈ 2.66 µM)	2 (≈ 2.66 µM)	2 (≈ 2.66 µM)	1 (≈ 1.33 µM)	2 (≈ 2.66 µM)	1 (≈ 1.33 µM)	MIC [2, 7]: 0.5 µg/mL (≈ 0.665 µM)
O=C(O)[C@H]1/C(=C/CO)O[C@@H]2CC(=O)N21 [Clavulanic acid]	–	–	–	–	–	–	–	–	–	–	–	–	–	–	–	–	–	–	–	IC50 [4]: 0.027 µM; Ki [4]: 0.024 ± 0.0004 µM; IC50 [5]: 0.152 µM; Ki [5]: 0.099 ± 0.0006 µM; fold higher IC50 value against PER-4 than against wild-type PER-1 [5]: ~5.6 fold
CO/N=C(\C(=O)N[C@@H]1C(=O)N2C(C(=O)[O-])=C(C[N+]3(C)CCCC3)CS[C@H]12)c1csc(N)n1 [FEP, cefepime]	–	–	–	128 (≈ 266 µM)	128 (≈ 266 µM)	128 (≈ 266 µM)	64 (≈ 133 µM)	128 (≈ 266 µM)	128 (≈ 266 µM)	1	4	> 128	> 128	–	–	–	–	–	–	MIC [2, 7]: 2 µg/mL (≈ 4.16 µM)
C[C@H]1COc2c(N3CCN(C)CC3)c(F)cc3c(=O)c(C(=O)O)cn1c23 [LEV, levofloxacin]	82.14	16 (≈ 44.3 µM)	32 (≈ 88.6 µM)	–	–	–	–	–	–	–	–	–	–	–	–	–	–	–	–	MIC range ([1]; 56 PER-producing PA strains): 0.5 to 64 µg/mL
C[C@@H](O)[C@H]1C(=O)N2C(C(=O)O)=C(S[C@@H]3CN[C@H](C(=O)N(C)C)C3)[C@H](C)[C@H]12 [MEM, meropenem]	91.07	16 (≈ 41.7 µM)	64 (≈ 167 µM)	1 (≈ 2.61 µM)	1 (≈ 2.61 µM)	1 (≈ 2.61 µM)	2 (≈ 5.22 µM)	1 (≈ 2.61 µM)	32 (≈ 83.4 µM)	0.5	1	1	1	16 (≈ 41.7 µM)	32 (≈ 83.4 µM)	32 (≈ 83.4 µM)	16 (≈ 41.7 µM)	16 (≈ 41.7 µM)	32 (≈ 83.4 µM)	–
CCN1CCN(C(=O)N[C@@H](C(=O)N[C@@H]2C(=O)N3[C@@H]2SC(C)(C)[C@@H]3C(=O)O)c2ccccc2)C(=O)C1=O [PIP, piperacillin]	98.21	> 128	> 128	> 128	> 128	> 128	128 (≈ 247 µM)	128 (≈ 247 µM)	> 128	4	–	32	16	> 128	> 128	> 128	128 (≈ 247 µM)	> 128	> 128	–
C[C@]1(Cn2ccnn2)[C@H](C(=O)O)N2C(=O)C[C@H]2S1(=O)=O [Tazobactam]	–	–	–	–	–	–	–	–	–	–	–	–	–	–	–	–	–	–	–	IC50 [4]: 0.363 µM; Ki [4]: 0.32 ± 0.0131 µM; IC50 [5]: 1090 µM; Ki [5]: 707 ± 97.7 µM; fold higher IC50 value against PER-4 than against wild-type PER-1 [5]: ~3002 fold
colistin [CST]	0.00	–	–	–	–	–	–	–	–	–	–	–	–	–	–	–	–	–	–	MIC50 ([1]; 56 PER-producing PA strains): 2 µg/mL; MIC90 ([1]; 56 PER-producing PA strains): 2 µg/mL; MIC range ([1]; 56 PER-producing PA strains): 0.25 to 2 µg/mL
